For experiment [1], the target named is T1, Endoribonuclease toxin MazF (Escherichia coli K-12, UniProt P0AE70).
T1 sequence (P0AE70 whole entry): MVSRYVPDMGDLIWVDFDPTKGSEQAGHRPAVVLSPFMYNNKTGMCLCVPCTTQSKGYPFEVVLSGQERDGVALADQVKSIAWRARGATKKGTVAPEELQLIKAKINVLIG
The experiment can be described thus: MazF toxin RNase activators, dose response, biochemical, fluorescence, single-stranded RNA substrate, uHTS hits (AID 588481). Type of experiment: functional.

The target of experiment [2] is T1, Endoribonuclease toxin MazF. The experiment can be described thus: fluorescent RNA oligo signal without MazF, dose response, counter-screen for MazEF activator project, biochemical, fluorescence, single-stranded RNase substrate (AID 588502). The format is functional.
Experiment [3] addresses Heat shock protein HSP 90-alpha (Homo sapiens, UniProt P07900). Type of experiment: functional, organism-based.
The next experiment has as its target Phospholipase A2 (Homo sapiens, UniProt P04054). Type of experiment: functional.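 Note: confirmatory dose-response counterscreen on phospholipase A2, testing hits that came from an ultra-high-throughput screen for ATG4B inhibitors.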
A further experiment concerns the target Genome polyprotein (dengue virus type 2, UniProt P29990). The experiment can be described thus: Dengue-2 NS5 methyltransferase inhibitors, primary screen, biochemical, confirmation dose response (AID 588689). The format is functional.
For experiment [4], the target named is T2, High affinity choline transporter 1 (Homo sapiens, UniProt Q9GZV3).
T2 sequence (Q9GZV3 whole entry): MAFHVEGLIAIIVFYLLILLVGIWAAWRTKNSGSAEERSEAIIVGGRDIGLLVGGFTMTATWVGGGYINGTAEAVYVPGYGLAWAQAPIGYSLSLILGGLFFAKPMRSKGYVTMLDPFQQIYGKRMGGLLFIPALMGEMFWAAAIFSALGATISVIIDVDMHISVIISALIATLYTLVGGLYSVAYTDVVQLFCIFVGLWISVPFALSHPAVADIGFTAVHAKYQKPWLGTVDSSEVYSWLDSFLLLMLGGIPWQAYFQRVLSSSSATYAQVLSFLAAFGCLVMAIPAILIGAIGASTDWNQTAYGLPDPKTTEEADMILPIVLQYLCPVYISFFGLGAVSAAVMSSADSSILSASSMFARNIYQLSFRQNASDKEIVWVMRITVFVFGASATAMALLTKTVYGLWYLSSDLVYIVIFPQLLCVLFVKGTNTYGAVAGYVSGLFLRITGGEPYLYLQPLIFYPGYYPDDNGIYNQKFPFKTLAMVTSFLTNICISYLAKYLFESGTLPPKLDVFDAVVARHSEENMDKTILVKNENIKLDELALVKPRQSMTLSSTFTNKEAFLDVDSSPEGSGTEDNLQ
The experiment can be described thus: CHT inhibitors, dose response, cell-based, 5-point CRC, membrane potential dye (AID 504840). The format is functional.

For experiment [5], the target named is T3, Zinc finger protein mex-5 (Caenorhabditis elegans, UniProt Q9XUB2).
T3 sequence (Q9XUB2 whole entry): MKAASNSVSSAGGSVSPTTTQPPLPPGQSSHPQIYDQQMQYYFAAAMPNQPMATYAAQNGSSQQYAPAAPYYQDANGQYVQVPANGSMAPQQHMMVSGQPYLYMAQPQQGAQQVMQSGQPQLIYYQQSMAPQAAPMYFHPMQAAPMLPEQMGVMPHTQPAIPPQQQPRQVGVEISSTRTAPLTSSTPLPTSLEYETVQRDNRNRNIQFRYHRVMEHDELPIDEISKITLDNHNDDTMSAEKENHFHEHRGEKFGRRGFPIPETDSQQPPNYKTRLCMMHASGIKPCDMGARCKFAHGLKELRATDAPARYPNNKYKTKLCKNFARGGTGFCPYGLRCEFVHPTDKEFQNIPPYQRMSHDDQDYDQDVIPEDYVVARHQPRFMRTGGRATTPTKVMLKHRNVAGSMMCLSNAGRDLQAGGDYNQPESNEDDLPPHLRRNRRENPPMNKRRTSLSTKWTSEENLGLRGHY
The experiment can be described thus: MEX-5/TCR-2 RNA interaction inhibitors, dose response, biochemical, C. elegans, fluorescence polarization (AID 1960).

For a further experiment, the target named is T4, Cysteine protease ATG4B (Homo sapiens, UniProt Q9Y4P1).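 Note: Fluorescence-based dose-response confirmation assay measuring inhibition of ATG4B activity.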
T4 sequence (Q9Y4P1 whole entry): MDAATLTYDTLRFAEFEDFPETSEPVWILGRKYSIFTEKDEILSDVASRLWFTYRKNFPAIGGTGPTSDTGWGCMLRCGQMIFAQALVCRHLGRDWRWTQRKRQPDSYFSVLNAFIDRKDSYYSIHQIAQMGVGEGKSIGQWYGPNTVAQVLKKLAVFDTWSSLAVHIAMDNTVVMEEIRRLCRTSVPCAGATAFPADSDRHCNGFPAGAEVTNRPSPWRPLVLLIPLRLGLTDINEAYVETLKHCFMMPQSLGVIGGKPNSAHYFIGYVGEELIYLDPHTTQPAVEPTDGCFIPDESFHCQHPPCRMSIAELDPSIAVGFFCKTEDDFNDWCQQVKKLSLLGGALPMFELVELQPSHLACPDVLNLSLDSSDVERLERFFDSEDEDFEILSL
The format is functional.

For a further experiment, the target named is Large T antigen (Simian virus 40, UniProt P03070). Type of experiment: functional, Betapolyomavirus macacae.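 Note: Confirmatory-stage PubChem screen for compounds that inhibit SV40 T antigen.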
Chain of Large T antigen (P03070 whole entry): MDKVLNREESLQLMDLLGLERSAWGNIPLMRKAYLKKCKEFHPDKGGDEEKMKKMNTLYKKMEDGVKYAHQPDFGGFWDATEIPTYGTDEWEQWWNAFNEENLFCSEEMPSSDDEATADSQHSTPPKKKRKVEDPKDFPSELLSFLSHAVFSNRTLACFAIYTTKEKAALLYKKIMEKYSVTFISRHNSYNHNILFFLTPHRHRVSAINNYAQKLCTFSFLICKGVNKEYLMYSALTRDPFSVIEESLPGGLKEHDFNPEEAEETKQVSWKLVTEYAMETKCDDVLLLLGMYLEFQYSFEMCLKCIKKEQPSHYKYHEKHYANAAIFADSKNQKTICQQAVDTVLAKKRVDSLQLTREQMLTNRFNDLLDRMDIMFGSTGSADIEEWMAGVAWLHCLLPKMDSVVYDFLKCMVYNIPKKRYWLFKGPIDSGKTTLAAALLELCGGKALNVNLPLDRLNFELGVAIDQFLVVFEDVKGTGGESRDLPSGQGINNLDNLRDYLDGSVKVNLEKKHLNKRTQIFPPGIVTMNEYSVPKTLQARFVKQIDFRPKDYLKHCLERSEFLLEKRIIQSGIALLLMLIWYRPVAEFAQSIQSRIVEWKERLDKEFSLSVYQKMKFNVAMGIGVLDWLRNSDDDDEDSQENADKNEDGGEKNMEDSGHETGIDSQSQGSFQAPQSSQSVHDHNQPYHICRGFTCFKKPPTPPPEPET
In a further experiment the target is Prothrombin (Homo sapiens, UniProt P00734). The experiment can be described thus: Thrombin 1536 HTS Dose Response Confirmation. [Related pubchem assays: 1046 (Thrombin 1536 HTS; hits were confirmed in this assay)]. The format is functional.
Another experiment addresses T5, Streptokinase A (Streptococcus pyogenes serotype M1, UniProt P10520).
T5 sequence (P10520 whole entry): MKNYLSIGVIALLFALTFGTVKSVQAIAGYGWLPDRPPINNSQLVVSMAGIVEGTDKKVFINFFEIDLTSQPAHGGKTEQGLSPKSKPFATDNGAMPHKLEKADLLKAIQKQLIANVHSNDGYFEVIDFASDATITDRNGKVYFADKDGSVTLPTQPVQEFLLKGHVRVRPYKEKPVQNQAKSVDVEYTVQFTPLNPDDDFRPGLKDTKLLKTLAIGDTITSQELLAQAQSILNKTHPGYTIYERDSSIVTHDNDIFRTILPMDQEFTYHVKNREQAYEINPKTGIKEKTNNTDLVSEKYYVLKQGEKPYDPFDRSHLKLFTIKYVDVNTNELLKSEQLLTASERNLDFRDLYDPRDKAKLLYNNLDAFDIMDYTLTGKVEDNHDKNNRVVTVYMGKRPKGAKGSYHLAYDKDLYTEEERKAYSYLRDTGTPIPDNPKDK
The experiment can be described thus: S. pyogenes streptokinase expression inhibitors, potency, dose response, plasminogen activation absorbance, OD405 (AID 1914).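 Note: secreted streptokinase activity via plasminogen activation per viability signal from cell pellet.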 Type of experiment: functional, Streptococcus pyogenes M1 GAS.

Experiment [6] deals with T6, Corticotropin-releasing factor receptor 2/Corticotropin-releasing factor-binding protein (Homo sapiens, UniProt P24387+Q13324).
T6 sequence (Q13324 whole entry): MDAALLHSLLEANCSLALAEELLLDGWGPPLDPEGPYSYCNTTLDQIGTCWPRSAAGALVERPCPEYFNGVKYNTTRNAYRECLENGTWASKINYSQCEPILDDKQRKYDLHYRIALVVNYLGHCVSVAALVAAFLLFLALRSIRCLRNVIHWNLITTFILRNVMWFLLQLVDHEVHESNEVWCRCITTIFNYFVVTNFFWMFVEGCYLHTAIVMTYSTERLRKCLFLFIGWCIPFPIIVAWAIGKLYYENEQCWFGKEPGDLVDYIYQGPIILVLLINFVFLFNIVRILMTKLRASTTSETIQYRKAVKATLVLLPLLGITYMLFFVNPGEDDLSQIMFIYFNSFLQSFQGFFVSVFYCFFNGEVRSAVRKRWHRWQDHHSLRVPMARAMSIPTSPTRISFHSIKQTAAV
T6 sequence (P24387 whole entry): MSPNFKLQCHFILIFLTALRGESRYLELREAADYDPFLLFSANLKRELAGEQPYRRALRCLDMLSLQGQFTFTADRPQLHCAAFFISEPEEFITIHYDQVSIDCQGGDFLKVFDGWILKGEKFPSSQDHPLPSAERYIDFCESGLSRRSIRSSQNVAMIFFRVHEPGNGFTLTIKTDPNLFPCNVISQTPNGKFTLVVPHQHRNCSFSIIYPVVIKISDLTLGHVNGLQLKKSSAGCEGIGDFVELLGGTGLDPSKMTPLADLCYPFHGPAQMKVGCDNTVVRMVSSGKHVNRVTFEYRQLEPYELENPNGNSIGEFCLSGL
The experiment can be described thus: activators of CRF receptor 2 with binding protein – uHTS hits, confirmation (AID 602473). The format is functional. The settings on record: read-out: EC50_Mean.

Another experiment relates to Streptococcus. The experiment can be described thus: Group A Streptococcus viability loss, dose response, counter-screen for streptokinase expression inhibitor project, luminescence, BacTiterGlo (AID 1915).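 Note: potency for reduction of bacterial viability or growth.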 Type of experiment: functional, organism-based.
In experiment [7] the test system is Streptococcus sp. 'group A'. The experiment can be described thus: growth inhibition of control SK(-) GAS strain, dose response, counter-screen for streptokinase expression inhibitor project, luminescence, kanamycin, BacTiterGlo, confirmation (AID 1900). Type of experiment: functional, organism-based.
The nature of experiment [8]: NIH-3T3 fibroblast cytotoxicity, dose response, cytotoxicity control, cell-based, fluorescence, Alamar Blue, secondary assay (AID 2327).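 Note: NIH-3T3 mouse fibroblasts cultured with fluconazole at 8 µg/mL.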 The format is functional.
Experiment [9] has as its target T2, High affinity choline transporter 1. The experiment can be described thus: CHT inhibitors, dose response, cell-based, 10-point CRC, membrane potential dye (AID 588401).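 Note: membrane potential dye fluorescence of choline-evoked depolarization via CHT.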 The format is functional.
Experiment [10] can be described thus: C. albicans growth with fluconazole, confirmation, fluorescence, retest (AID 2467). Type of experiment: functional, cell-based.

Activity calls are given as the source filed them. Some results are limits rather than exact numbers.

Chain of Phospholipase A2 (P04054 whole entry): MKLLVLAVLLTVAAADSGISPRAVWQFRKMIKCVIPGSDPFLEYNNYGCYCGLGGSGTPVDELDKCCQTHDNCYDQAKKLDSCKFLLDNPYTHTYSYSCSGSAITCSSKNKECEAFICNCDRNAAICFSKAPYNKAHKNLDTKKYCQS
Chain of Genome polyprotein (P29990 2492-3391 limits assumed): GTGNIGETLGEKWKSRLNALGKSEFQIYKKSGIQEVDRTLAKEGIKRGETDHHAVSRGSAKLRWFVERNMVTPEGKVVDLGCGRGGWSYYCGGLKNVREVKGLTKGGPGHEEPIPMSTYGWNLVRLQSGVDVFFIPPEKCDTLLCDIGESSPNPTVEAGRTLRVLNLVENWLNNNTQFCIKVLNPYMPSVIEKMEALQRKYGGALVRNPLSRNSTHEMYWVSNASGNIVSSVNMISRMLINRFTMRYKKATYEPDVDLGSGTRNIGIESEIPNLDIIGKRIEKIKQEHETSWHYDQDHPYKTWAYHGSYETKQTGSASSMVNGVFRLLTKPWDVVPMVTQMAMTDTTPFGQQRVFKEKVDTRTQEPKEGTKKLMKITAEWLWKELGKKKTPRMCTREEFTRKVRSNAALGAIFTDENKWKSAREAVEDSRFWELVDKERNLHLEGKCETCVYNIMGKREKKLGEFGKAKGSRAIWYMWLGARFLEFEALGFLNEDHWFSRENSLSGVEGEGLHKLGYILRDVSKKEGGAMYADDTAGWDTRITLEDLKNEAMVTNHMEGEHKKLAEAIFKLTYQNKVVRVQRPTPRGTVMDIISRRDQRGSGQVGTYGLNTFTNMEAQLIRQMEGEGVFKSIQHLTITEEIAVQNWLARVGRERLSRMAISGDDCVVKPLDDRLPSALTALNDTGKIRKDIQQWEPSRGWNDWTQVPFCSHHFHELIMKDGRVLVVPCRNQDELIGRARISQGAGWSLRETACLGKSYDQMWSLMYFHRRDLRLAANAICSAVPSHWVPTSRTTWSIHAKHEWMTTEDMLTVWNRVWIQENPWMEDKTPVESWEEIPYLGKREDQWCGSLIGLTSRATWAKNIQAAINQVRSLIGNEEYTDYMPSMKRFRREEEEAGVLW

On to `Nc1nonc1-n1nnc(C(=O)N/N=C/c2ccc3c(c2)OCO3)c1CSc1ccccc1`, for which the EC50 in experiment [1] and in experiment [2] was > 99 µM (inactive) in each case.
On to `CC(=O)Nc1cccc(C(=O)/C=C/c2ccc(N(C)C)cc2)c1`, for which the EC50 in experiment [1] and in experiment [2] was > 99 µM (inactive) each time.
Turning to `Oc1c(Br)cc(Br)c(/C=N/n2c(S)nnc2-c2ccccc2)c1Br`, the AC50 in experiment [3] was 8.53 µM (active). Further, the IC50 on Phospholipase A2 is 36.8 µM (inactive); at Genome polyprotein it was 17.9 µM (active); in experiment [4], 13.2 µM (active); on Cysteine protease ATG4B, 7.7 µM (active); at Large T antigen, 28.2 µM (active). Also, the EC50 in [5] is 5.63 µM (active).
For `O=C(O)c1cc([N+](=O)[O-])ccc1NCc1ccccc1Cl`, the IC50 at Phospholipase A2 is 9.55 µM (active); at Cysteine protease ATG4B, 11.9 µM (active); against Prothrombin, > 50 µM (not active).
Take `CCC(CC)C1=NN2C(=N)/C(=C\c3cc(C)n(-c4cccc(C)c4)c3C)C(=O)N=C2S1`: the IC50 on Phospholipase A2 was 0.975 µM (active); on Cysteine protease ATG4B it was 15.7 µM (active). The EC50 was > 150 µM (not active) at Streptokinase A, 6.03 µM (active) in [6], 17.8 µM (active) in the experiment on Streptococcus and 7.3 µM (active) in experiment [7].
Turning to `Nc1ncc(Br)cc1S(=O)(=O)Nc1cc(C(F)(F)F)cc(C(F)(F)F)c1`, the EC50 in [8] is 18.2 µM (active); in experiment [10], 341 nM (active); on Streptokinase A, 3.32 µM (active); in the experiment with Streptococcus, 19.9 µM (active); in experiment [7] it was 6.6 µM (active). Further, the IC50 in experiment [9] was 4.01 µM (active); on Phospholipase A2 it was 8.69 µM (active); in [4], 9.12 µM (active); on Cysteine protease ATG4B it was 8.94 µM (active).
